# Assay results as given in PubChem BioAssay AID296 (DTP/NCI, 2004).
# “And” between values parts separate entries of the source, which are not always exact repeats. Equal entries are not always repeated. Records with an inconclusive call do not appear.
# Tested on: MX-1 breast xenograft, nude mice, tumor weight T/C
# Assay: NCI In Vivo Anticancer Drug Screen. Data for tumor model Human Mammary Carcinoma MX-1 Xenograft (intrarenal inoculation) in NU/NU Swiss (nude) mice
# Details: endpoint: mean tumor weight change, higher = larger tumour
# Description: The antitumor activity of compounds was measured in mice bearing transplantable tumors. Survival or tumor size were measured and the results are expressed as the measurement made in the treated group (T) divided by the measurement made in the vehicle treated control group (C). The tumor model used in this assay is Human Mammary Carcinoma MX-1 Xenograft (intrarenal inoculation) in NU/NU Swiss (nude) mice
# [1] = dose: 50.0 mg/kg/injection, schedule: Q01DX010 (sc), vehicle: Klucel (hydroxypropylcellulose) (HPC)
# [2] = dose: 100.0 mg/kg/injection, schedule: Q01DX010 (sc), vehicle: Klucel (hydroxypropylcellulose) (HPC)
# [3] = dose: 400.0 mg/kg/injection, schedule: Q01DX010 (sc), vehicle: Klucel (hydroxypropylcellulose) (HPC)
# [4] = dose: 12.5 mg/kg/injection, schedule: Q01DX010 (sc), vehicle: saline with Tween-80
# [5] = dose: 25.0 mg/kg/injection, schedule: Q01DX010 (sc), vehicle: saline with Tween-80
# [6] = dose: 100.0 mg/kg/injection, schedule: Q01DX010 (sc), vehicle: saline with Tween-80
# [7] = dose: 150.0 mg/kg/injection, schedule: Q04DX003 (sc), vehicle: saline with Tween-80
# [8] = dose: 300.0 mg/kg/injection, schedule: Q04DX003 (sc), vehicle: saline with Tween-80
# [9] = dose: 12.5 mg/kg/injection, schedule: Q04DX003 (sc), vehicle: saline
# [10] = dose: 25.0 mg/kg/injection, schedule: Q04DX003 (sc), vehicle: saline
# [11] = dose: 50.0 mg/kg/injection, schedule: Q04DX003 (sc), vehicle: saline
# [12] = dose: 200.0 mg/kg/injection, schedule: Q01DX010 (sc), vehicle: saline with Tween-80
# [13] = dose: 150.0 mg/kg/injection, schedule: Q04DX003 (sc), vehicle: Klucel (hydroxypropylcellulose) (HPC)
# [14] = dose: 600.0 mg/kg/injection, schedule: Q04DX003 (sc), vehicle: Klucel (hydroxypropylcellulose) (HPC)
# [15] = dose: 1200.0 mg/kg/injection, schedule: Q04DX003 (sc), vehicle: Klucel (hydroxypropylcellulose) (HPC)
# [16] = dose: 600.0 mg/kg/injection, schedule: Q04DX003 (sc), vehicle: saline with Tween-80
# [17] = dose: 1200.0 mg/kg/injection, schedule: Q04DX003 (sc), vehicle: saline with Tween-80
smiles,measurement,setting,value
c1cc2c(c(CC3CO3)c1CC1CO1)OCCOCCOCCOCCO2 (configuration not stated),T/C,"dose: 75.0 mg/kg/injection, schedule: Q04DX003 (ip), vehicle: saline + alcohol",57 % of control
same,T/C,"dose: 150.0 mg/kg/injection, schedule: Q04DX003 (ip), vehicle: saline + alcohol",65 % of control
same,T/C,"dose: 300.0 mg/kg/injection, schedule: Q04DX003 (ip), vehicle: saline + alcohol",78 % of control
O=C([CH-]C(=O)C(F)(F)F)c1ccccc1.O=C([CH-]C(=O)C(F)(F)F)c1ccccc1.O=C([CH-]C(=O)C(F)(F)F)c1ccccc1.O=C([CH-]C(=O)C(F)(F)F)c1ccccc1.[Eu+3].c1ccncc1,T/C,[1],197 % of control
same,T/C,[2],174 % of control
same,T/C,"dose: 200.0 mg/kg/injection, schedule: Q01DX010 (sc), vehicle: Klucel (hydroxypropylcellulose) (HPC)",97 % of control
same,T/C,[3],178 % of control
c1cc[c]([Sn][c]2ccccc2)cc1,T/C,"dose: 20.0 mg/kg/injection, schedule: Q01DX010 (sc), vehicle: saline",112 % of control
same,T/C,"dose: 40.0 mg/kg/injection, schedule: Q01DX010 (sc), vehicle: saline",84 % of control
same,T/C,"dose: 80.0 mg/kg/injection, schedule: Q01DX010 (sc), vehicle: saline",74 % of control
same,T/C,"dose: 160.0 mg/kg/injection, schedule: Q01DX010 (sc), vehicle: saline",115 % of control
CCNC(=O)OCc1c(COC(=O)NCC)c(-c2ccc(Cl)c(Cl)c2)n2c1CCC2,T/C,[4],46 % of control
same,T/C,[5],10 % of control
same,T/C,"dose: 50.0 mg/kg/injection, schedule: Q01DX010 (sc), vehicle: saline with Tween-80",3 % of control and 8 % of control
same,T/C,[6],4 % of control
Cc1cc(=O)n2c3c(c4c(cc13)c(CN(C)C)cc(=O)n4C)OC2,T/C,"dose: 75.0 mg/kg/injection, schedule: Q04DX003 (sc), vehicle: saline with Tween-80",109 % of control
same,T/C,[7],151 % of control
same,T/C,[8],80 % of control
ClCC[Se](Cl)(Cl)c1ccccc1,T/C,[9],89 % of control
same,T/C,[10],109 % of control
same,T/C,[11],80 % of control
same,T/C,"dose: 100.0 mg/kg/injection, schedule: Q04DX003 (sc), vehicle: saline",59 % of control
CN(C)CCCNc1c2ccccc2nc2cccc([N+](=O)[O-])c12,T/C,"dose: 0.37 mg/kg/injection, schedule: Q04DX003 (sc), vehicle: saline",78 % of control
OCC1OC(n2cnc3cncnc32)C(O)C1O (configuration not stated),T/C,[9],90 % of control
same,T/C,[10],106 % of control
same,T/C,[11],78 % of control
CCCCNC(C)[C@]1(O)Cc2c(O)c3c(c(O)c2[C@@H](OC2CC(N)C(O)C(C)O2)C1)C(=O)c1c(OC)cccc1C3=O (some centres not stated),T/C,"dose: 6.25 mg/kg/injection, schedule: Q01DX010 (sc), vehicle: saline",59 % of control and 61 % of control
same,T/C,"dose: 18.0 mg/kg/injection, schedule: Q01DX010 (sc), vehicle: saline",12 % of control
CC1(C)CC1(Br)Br,T/C,[5],71 % of control
same,T/C,[6],118 % of control
same,T/C,[12],153 % of control
COc1cc(C(=O)c2cc3c(cc2C)OCO3)cc(OC)c1OC,T/C,[13],46 % of control
same,T/C,"dose: 300.0 mg/kg/injection, schedule: Q04DX003 (sc), vehicle: Klucel (hydroxypropylcellulose) (HPC)",44 % of control
same,T/C,[14],43 % of control
same,T/C,[15],53 % of control
[Cl][Pt+2][Cl].[NH-]C1CCC1.[NH2-],T/C,"dose: 6.25 mg/kg/injection, schedule: Q04DX003 (sc), vehicle: suspension in saline",-100 % of control
same,T/C,"dose: 25.0 mg/kg/injection, schedule: Q04DX003 (sc), vehicle: suspension in saline",-84 % of control and -100 % of control
COc1cccc2c1C(=O)c1c(O)c3c(c(O)c1C2=O)C[C@@](O)(C(C)=O)C[C@@H]3OC1CC(N(C)C)C(O)C(C)O1 (some centres not stated),T/C,"dose: 2.0 mg/kg/injection, schedule: Q01DX010 (sc), vehicle: water",293 % of control
same,T/C,"dose: 4.0 mg/kg/injection, schedule: Q01DX010 (sc), vehicle: water",120 % of control
Cn1cc(C2NC(=O)c3ccccc3N2)c2ccccc21 (configuration not stated),T/C,[13],113 % of control
same,T/C,[15],108 % of control
O=[N+]([O-])/C=C\c1ccc2c(c1)OCO2,T/C,[1],214 % of control
same,T/C,[2],91 % of control
same,T/C,[3],86 % of control
O=C(O)CC(=O)O.[NH-]CC[NH-].[Pt+2],T/C,"dose: 12.5 mg/kg/injection, schedule: Q01DX010 (sc), vehicle: dextrose",-100 % of control
same,T/C,"dose: 100.0 mg/kg/injection, schedule: Q01DX010 (sc), vehicle: dextrose",-100 % of control
CC[C@](O)(C(=O)O)c1cc2n(c(=O)c1CO)Cc1cc3ccccc3nc1-2,T/C,"dose: 8.0 mg/kg/injection, schedule: Q04DX003 (sc), vehicle: saline",2 % of control
same,T/C,"dose: 16.0 mg/kg/injection, schedule: Q04DX003 (sc), vehicle: saline",-92 % of control
same,T/C,"dose: 32.0 mg/kg/injection, schedule: Q04DX003 (sc), vehicle: saline",-89 % of control
same,T/C,"dose: 64.0 mg/kg/injection, schedule: Q04DX003 (sc), vehicle: saline",-100 % of control
Nc1ncnc2c(C3OC(CO)C(O)C3O)[nH]nc12 (configuration not stated),T/C,"dose: 75.0 mg/kg/injection, schedule: Q04DX003 (sc), vehicle: Klucel (hydroxypropylcellulose) (HPC)",-100 % of control
same,T/C,"dose: 75.0 mg/kg/injection, schedule: Q04DX003 (sc), vehicle: suspension in saline",5 % of control
same,T/C,[13],-100 % of control
same,T/C,"dose: 150.0 mg/kg/injection, schedule: Q04DX003 (sc), vehicle: suspension in saline",5 % of control
same,T/C,"dose: 300.0 mg/kg/injection, schedule: Q04DX003 (sc), vehicle: suspension in saline",-79 % of control
COc1ccc2c(c1)CCn1c(C)c(COC(=O)NC(C)C)c(COC(=O)NC(C)C)c1-2,T/C,"dose: 150.0 mg/kg/injection, schedule: Q04DX003 (sc), vehicle: distilled water + Tween-80",6 % of control
same,T/C,"dose: 300.0 mg/kg/injection, schedule: Q04DX003 (sc), vehicle: distilled water + Tween-80",3 % of control
same,T/C,"dose: 600.0 mg/kg/injection, schedule: Q04DX003 (sc), vehicle: distilled water + Tween-80",-100 % of control
same,T/C,"dose: 1200.0 mg/kg/injection, schedule: Q04DX003 (sc), vehicle: distilled water + Tween-80",-100 % of control
Nc1nc(N)c2cc(S(=O)(=O)c3ccccc3)ccc2n1,T/C,[7],160 % of control
same,T/C,[8],171 % of control
same,T/C,[16],185 % of control
same,T/C,[17],152 % of control
COc1ccc(S(=O)(=O)N/N=C/C(=O)O)cc1,T/C,[4],116 % of control
O=Cc1ccc(C=O)c(Cl)c1,T/C,[14],77 % of control
same,T/C,"dose: 2400.0 mg/kg/injection, schedule: Q04DX003 (sc), vehicle: Klucel (hydroxypropylcellulose) (HPC)",120 % of control
CN=C(N)N/N=C(\C)c1ccc2c(c1)Cc1ccccc1-2,T/C,[7],105 % of control
same,T/C,[8],115 % of control
same,T/C,[16],105 % of control
same,T/C,[17],191 % of control
CCOC(=O)c1ccc(NC(=O)Nc2nncs2)cc1,T/C,"dose: 50.0 mg/kg/injection, schedule: Q01DX010 (sc), vehicle: distilled water + Tween-80",44 % of control
same,T/C,[6],65 % of control
same,T/C,[12],62 % of control
same,T/C,"dose: 400.0 mg/kg/injection, schedule: Q01DX010 (sc), vehicle: saline with Tween-80",65 % of control
same,T/C,"dose: 800.0 mg/kg/injection, schedule: Q01DX010 (sc), vehicle: distilled water + Tween-80",120 % of control
same,T/C,"dose: 800.0 mg/kg/injection, schedule: Q01DX010 (sc), vehicle: saline with Tween-80",37 % of control
NC(=O)c1cn(C2OC(CO)C(O)C2O)c2ncnc(N)c12 (configuration not stated),T/C,"dose: 1.5 mg/kg/injection, schedule: Q04DX003 (sc), vehicle: saline",77 % of control
same,T/C,"dose: 3.0 mg/kg/injection, schedule: Q04DX003 (sc), vehicle: saline",61 % of control
same,T/C,"dose: 6.0 mg/kg/injection, schedule: Q04DX003 (sc), vehicle: saline",40 % of control
c1cc2n(n1)CCN2,T/C,"dose: 50.0 mg/kg/injection, schedule: Q01DX010 (sc), vehicle: saline",75 % of control and 77 % of control
N[C@@H](Cc1c[nH]c2ccccc12)C(=O)Nc1nncs1,T/C,"dose: 300.0 mg/kg/injection, schedule: Q04DX003 (ip), vehicle: suspension in saline",69 % of control
same,T/C,"dose: 600.0 mg/kg/injection, schedule: Q04DX003 (ip), vehicle: suspension in saline",50 % of control
